US6610681B1, “Neurotherapeutic clavulanate composition and method” (Revaax Pharmaceuticals, LLC, priority 1999, dated 2003)
Entries after “also recorded” stand apart in the source; their conditions may differ.

Experiments:
[1] = tested on: neurogenic NAALADase; test: animal tests of neuroactivity, effective dose; assay type: in vivo, hamsters and other test species
[2] = tested on: male golden hamsters; test: resident/intruder paradigm of offensive aggression; assay type: in vivo, hamster
From the text: Agonistic behavior can be classified as either offensive or defensive aggression (Blanchard and Blanchard, 1977; Adams, […]; Albert and Walsh, 1984). Offensive aggression is characterized by an aggressor initiating an attack on an opponent; while, defensive aggression lacks active approach. Both types of aggression have their own unique neurobehavioral systems. The stimuli that elicit offensive and defense attack are different, as are the sequences of behaviors that accompany each agonistic response. […] Offensive aggression is easily studied using male golden hamsters tested in a resident/intruder paradigm, an established model of offensive aggression (Ferris and Potegal 1988) in the context of defending the home burrow. Placing an unfamiliar male hamster into the home cage of another male hamster elicits a well-defined sequence of agonistic behaviors from the resident that includes offensive aggression.
Hamsters are nocturnal and as such all behavioral tests were performed during the first four hrs of the dark phase under dim red illumination. The resident was scored for offensive aggression, e.g., latency to bite the intruder, the total number of bites, total contact time with the intruder and flank marking over a 10 min test period (Ferris and Potegal, 1988). Flank marking is a form of olfactory communication in which a hamsters arches its back and rubs pheromone producing flank glands against objects in the environment (Johnston, 1986).
Five male golden hamsters (130-140 g) were given IP injections of CLAV (200 μg/kg) and saline vehicle in a volume of ca. 0.2 ml. […] Vehicle and CLAV treatments were counter balanced and randomized so all five animals received each treatment separated by at least 48 hrs. Animals were tested 90 min after treatment over a 10 min observation period. Latencies and contact time were analyzed with a two-way ANOVA. Non-parametric data, i.e., number of bites and flank marks were analyzed by Wilcoxon matched-pairs signed-ranks test.
The animals tested in this study were those used in Section IX. After the seed finding assay, beta-NAAG (n=6) and saline vehicle (n=6) treated animals remained in their home cage and were presented with a smaller, male intruder. The resident was scored for latency to bite, bites, contact time and flank marking over a 10 min observation period. Latency to bite and contact time between treatments were compared with Student t-tests. Non-parametric measures of bites and flank marks for beta-NAAG vs vehicle were compared with Mann-Whitney.

[3] = tested on: rats; test: Morris water maze, spatial navigation; assay type: in vivo, rat
From the text: The Morris water maze was developed to test spatial memory (Morris, 1984). The pool is divided into quadrants usually designated North, South, East and West. The water in the pool is made opaque with milk powder. Hidden just beneath the surface in one of the quadrants is a platform that serves as a escape route for rodents placed into the pool. An animal is placed some where in the pool from a variety of different start points and is timed for latency to find the platform, percent time spent in each quadrant, distance traveled and swimming speed. The animals have no visual or spatial cues in the pool and must rely on extra-maze cues, i.e., objects set up outside the pool that can be seen by the swimming animal. Through a series of trials a rat develops “place learning” or knowledge about the position of the platform based upon the extra-maze cues. The platform can be moved to a different quadrant each day combining spatial memory with working memory. This paradigm involves extinction of the prior memory and resolution of a new spatial problem.
The water maze consisted of a black plastic circular pool ca. 150 cm in diameter and 54 cm in height filled to a level of 35 cm with water made opaque with powdered milk. The pool was divided into four quadrants with a platform 10 cm in diameter submerged 2 cm below the surface in the northwest quadrant. The water was maintained at a temperature of 25° C. Around the pool were several visual cues. Above the pool was a video camera for tracking the movement of the experimental animal. The data collection was completely automated using the software developed by HVS Image (Hampton, UK). Before testing, rats were familiarized with the pool and platform placed in the northwest quadrant. Each day for 4 consecutive days, animals were placed into pool at random sites and given two min to find the platform. […] Following these familiarization trials, animals were tested for spatial navigation. The first day of testing began with the platform in the expected northwest quadrant. All behavior was videotaped for a two min observation period. After testing the animal were dried off and placed back into their home cage. On each subsequent day the platform was moved to a new quadrant and the rat started at different positions. The rat was always placed into the pool facing the sidewall. The start positions relative to the platform were different for each of the four trials; however, the platform was always in the same relative position in each quadrant. It was positioned 20 cm in from the side of the pool and in the left corner from the center facing out. The latency to find the hidden platform, path length, swim rate, and quadrant times between CLAV and vehicle treated animals were compared with a two-way, repeated measures ANOVA followed by Bonferroni post hoc tests.

SMILES | dose exhibiting significant dose responsive neuroactivity ([1]; administered parenterally) | threshold effective dose ([1]; administered parenterally) | effective minimum neurogenic protease inhibiting concentration in the brain ([1]; based on animal test data and known brain distribution) | minimum effective dose ([1]; parenterally, hamsters and other test species) | aggression ([2]; i.p. at 50 micrograms/kg, hamster) | spatial learning ([3]; i.p. at 50 micrograms/kg, rats) | dose effective to inhibit neurogenic NAALADase ([1]; i.p.) | dose showing activity similar to moxalactam (aggression, spatial learning, anxiolytic) ([1]; i.p.) | dose exhibiting dose responsive neuroactivity ([1]; levels as low as) | antiaggressive properties (summary) ([2]; 200 μg/kg) | contact time with the intruder ([2]; 200 μg/kg IP, 90 min) | flank marking behavior ([2]; 200 μg/kg IP, 90 min) | latency to bite the intruder ([2]; 200 μg/kg IP, 90 min, trend toward significance) | median number of bites ([2]; 200 μg/kg IP, 90 min, vehicle thirteen) | aggressive behavior, pilot studies ([2]; IP at 1.0 μg/kg) | path length to find the platform ([3]; 1.0 μg/kg, Day 1, vs vehicle) | percentage of time spent in each quadrant vs vehicle ([3]; 1.0 μg/kg, any quadrant on any day) | latency to find the platform, main effect ([3]; 1.0 μg/kg, one hr before testing, 4 days) | latency to find the platform on Days 1 and 4 ([3]; 1.0 μg/kg, trend towards significance) | learning and memory (summary) ([3]; spatial and cue navigation)
CO[C@@]1(NC(=O)C(C(=O)O)c2ccc(O)cc2)C(=O)N2C(C(=O)O)=C(CSc3nnnn3C)CO[C@@H]21 (stereo partly drawn) [Moxalactam, 7-β-[2-carboxy-2-(4-hydroxyphenyl)acetamido]-7α-methoxy-3-[[(1-methyl-1H-tetrazol-5-yl)thio]methyl]-1-oxa-1-dethia-3-cephem-4-carboxylic acid] | about 50 μg/kg of body weight | about 50 βg/kg of body weight | about 30 nM | about 50 micrograms per kg of body weight | inhibits aggression in hamster | enhances spatial learning in rats | – | – | – | – | – | – | – | – | – | – | – | – | – | –
O=C(O)[C@H]1/C(=C/CO)O[C@@H]2CC(=O)N21 [CLAV, clavulanic acid] | – | – | – | – | – | – | less than 1 microgram per kilogram of body weight | less than 1 microgram/kg | 10 ng/kg | modest antiaggressive or serenic-like properties | no significant main effect for drug treatment | unaffected; also recorded: no significant effect of drug treatment | no significant main effect for drug treatment | six | no effect on aggressive behavior | traveled a much shorter distance | no significant difference between treatments | no main effect for drug treatment | shorter latencies | do not show any loss in learning and memory
